We go through 7 compounds from PubChem BioAssay (NCI).

Among the test systems are HCT-116 colon; HOP-92 NSCLC; IGROV1 ovarian; K-562 leukemia; NCI-H460 lung; OVCAR-3 ovarian; OVCAR-4 ovarian; RXF 393 renal; SK-MEL-5 melanoma; SNB-75 CNS.
Assay in all cases: DTP human tumour cell line panel, 48 h

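Briefly, cells in 96-well plates were exposed to five compound concentrations for 48 h, and endpoints were estimated by linear interpolation. GI50 marks 50% less growth. At the TGI there is no net growth.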 Where only a bound is given, the exact number is not on record here.

Turning to `C=C1CCC2C3(C)COC(C)(C)OC3CCC2(C)C1C/C=C1/C(=O)OCC1OC(C)=O` (centres undefined), the GI50 – broadly, the concentration at which growth is held to half of that of the control – was 1.1 µM with HCT-116 colon; 10.8 µM with HOP-92 NSCLC; 2.03 µM in the assay with IGROV1 ovarian; 2.85 µM with K-562 leukemia; 5.24 µM in the assay on NCI-H460 lung; 2.47 µM in the assay on OVCAR-3 ovarian. Moreover, the GI50 in the assay on OVCAR-4 ovarian was 2.6 µM; with RXF 393 renal, 1.6 µM; with SK-MEL-5 melanoma it was 4.8 µM; in the assay with SNB-75 CNS it was 5.23 µM. Also, the TGI – broadly, the concentration at which net growth stops – with HCT-116 colon was found to be 2.31 µM; in the assay on HOP-92 NSCLC, 24.2 µM; with IGROV1 ovarian it was 6.84 µM; in the assay on K-562 leukemia, 23.2 µM; with NCI-H460 lung, 17.7 µM; in the assay on OVCAR-3 ovarian, 6.07 µM. The TGI was 10.1 µM in the assay with OVCAR-4 ovarian, 3.32 µM in the assay with RXF 393 renal, 16.4 µM with SK-MEL-5 melanoma and 16.5 µM in the assay on SNB-75 CNS.

On to `CCN1C(=O)N(CC)C2C1NN=c1s/c(=C\c3ccc(Cl)cc3Cl)c(=O)n12` (centres undefined), for which the GI50 in the assay with HCT-116 colon is 0.0317 µM; with HOP-92 NSCLC, 0.275 µM; in the assay with IGROV1 ovarian, 0.0437 µM; in the assay with K-562 leukemia it was 0.0309 µM; with NCI-H460 lung it was 0.0347 µM; with OVCAR-3 ovarian, 0.0263 µM. In addition, the GI50 with OVCAR-4 ovarian is 0.0792 µM; in the assay on RXF 393 renal it was 0.0327 µM; in the assay with SK-MEL-5 melanoma, 0.0247 µM; in the assay with SNB-75 CNS, 0.0258 µM. Further, the TGI in the assay with HOP-92 NSCLC was 64 µM; in the assay with IGROV1 ovarian, > 44.4 µM; in the assay with K-562 leukemia it was 28 µM; in the assay on NCI-H460 lung, 15.8 µM; with OVCAR-3 ovarian, 0.0665 µM; in the assay on OVCAR-4 ovarian it was > 95.9 µM. Moreover, the total growth inhibition concentration (TGI) with RXF 393 renal was found to be 14.7 µM; in the assay on SK-MEL-5 melanoma, 0.0763 µM; in the assay with SNB-75 CNS, 0.971 µM.

As for `Cc1c2cnccc2c(C)c2c1c1cc(C#N)ccc1n2C`, the GI50 with HCT-116 colon is 0.0434 µM; in the assay with HOP-92 NSCLC, 0.18 µM; in the assay on IGROV1 ovarian, 0.14 µM; in the assay with K-562 leukemia, 0.247 µM; in the assay with NCI-H460 lung, 0.124 µM; in the assay with OVCAR-3 ovarian it was 0.215 µM. Besides, the GI50 in the assay on OVCAR-4 ovarian is 0.245 µM; in the assay on RXF 393 renal, 0.128 µM; in the assay on SK-MEL-5 melanoma, 0.224 µM; with SNB-75 CNS it was 0.179 µM. In addition, the TGI in the assay with HCT-116 colon amounted to 0.593 µM; in the assay with HOP-92 NSCLC it was 0.708 µM; in the assay with IGROV1 ovarian it was 1.1 µM; with K-562 leukemia, 1.33 µM; in the assay on NCI-H460 lung it was 0.427 µM; in the assay on OVCAR-3 ovarian, 0.792 µM. Further, the total growth inhibition concentration (TGI) with OVCAR-4 ovarian turned out to be 0.988 µM; in the assay with RXF 393 renal it was 0.393 µM; with SK-MEL-5 melanoma, 0.591 µM; in the assay on SNB-75 CNS it was 0.966 µM.

Regarding `CCCN1C(=O)NC(=O)C(CC)(N2C(=O)c3c(F)c(F)c(F)c(F)c3C2=O)C1=O` (centres undefined), the GI50 in the assay with HCT-116 colon was 1.48 µM; in the assay with HOP-92 NSCLC it was 1.68 µM; in the assay on IGROV1 ovarian, 1.58 µM; in the assay with K-562 leukemia, 1.73 µM; with NCI-H460 lung it was 2.24 µM; with OVCAR-3 ovarian, 1.69 µM. Also, the GI50 in the assay with OVCAR-4 ovarian was 2.22 µM; in the assay on RXF 393 renal, 2.28 µM; with SK-MEL-5 melanoma it was 2.37 µM; with SNB-75 CNS it was 1.81 µM. Moreover, the TGI was found to be 4.93 µM in the assay with HCT-116 colon; 3.37 µM in the assay on HOP-92 NSCLC; 3.67 µM with IGROV1 ovarian; 4.55 µM with K-562 leukemia; 5.71 µM with NCI-H460 lung; 3.16 µM in the assay with OVCAR-3 ovarian. The concentration for total growth inhibition (TGI) in the assay on OVCAR-4 ovarian worked out at 4.83 µM; in the assay on RXF 393 renal, 4.45 µM; in the assay with SK-MEL-5 melanoma, 7.71 µM; in the assay with SNB-75 CNS, 4.52 µM.

`N=C1C(O)C2(I)c3ccccc3N3C(=N)C(O)C4c5ccccc5N1C4C32` (centres undefined): the concentration for total growth inhibition (TGI) in the assay on HCT-116 colon, in the assay with HOP-92 NSCLC, in the assay on IGROV1 ovarian, in the assay on K-562 leukemia, in the assay with NCI-H460 lung and in the assay with OVCAR-3 ovarian was > 100 µM each time. The TGI in the assay with OVCAR-4 ovarian was 30.1 µM; with RXF 393 renal, > 100 µM; in the assay with SK-MEL-5 melanoma, > 100 µM; with SNB-75 CNS it was > 100 µM.

In the case of `c1ccc(-c2nc(-c3ccccn3)nc(-c3ccccn3)n2)nc1`, the GI50 with HCT-116 colon is 19.4 µM; in the assay on HOP-92 NSCLC, 8.99 µM; in the assay on IGROV1 ovarian it was 15.8 µM; with K-562 leukemia it was 19.4 µM; with NCI-H460 lung, 12.1 µM; in the assay with OVCAR-3 ovarian it was 25.4 µM. Further, the GI50 in the assay with OVCAR-4 ovarian is 18.6 µM; in the assay on RXF 393 renal, > 100 µM; with SK-MEL-5 melanoma it was 17.2 µM; with SNB-75 CNS, > 100 µM. Further, the TGI is 78.6 µM in the assay with HCT-116 colon; 92 µM in the assay on HOP-92 NSCLC; 55.2 µM in the assay on IGROV1 ovarian; > 100 µM in the assay with K-562 leukemia; > 100 µM with NCI-H460 lung; > 100 µM in the assay on OVCAR-3 ovarian. The TGI in the assay on OVCAR-4 ovarian is > 100 µM; in the assay on RXF 393 renal, > 100 µM; in the assay on SK-MEL-5 melanoma, 47.1 µM; with SNB-75 CNS, > 100 µM.

Regarding `Cc1c(OC(C)C(=O)O)ccc2c(-c3ccccc3)cc(=O)oc12` (centres undefined), the total growth inhibition concentration (TGI) with HCT-116 colon, in the assay on HOP-92 NSCLC, with IGROV1 ovarian, in the assay with K-562 leukemia, in the assay on NCI-H460 lung and in the assay with OVCAR-3 ovarian was > 100 µM throughout. Also, the concentration for total growth inhibition (TGI) with OVCAR-4 ovarian, with RXF 393 renal, in the assay with SK-MEL-5 melanoma and with SNB-75 CNS was > 100 µM each time.
